Measurements reported in patent US20050014280A1, “In vitro method for determining drug permeability using immobilized artificial membrane chromatography” (priority 2003, published 2005).
Where two headings read alike, the source gives them in different places.

Key:
[1] = Immobilized artificial membrane (IAM) HPLC capacity factor; format: physicochemical; details: 37° C.; for k′IAM (capacity factor): 1.0 ml/min, from average of 3 runs
Procedure: Sample Preparation: Between 3 and 10 mg of each sample was dissolved in a solution of 10% methanol, 90% water in preparation for injection onto the column.
HPLC Conditions: A Regis IAM.PC.DD2 column (30 mm×4.6 mm, 12 μm) was used, run at 37° C. at a flow rate of 1.0 ml/min. […] Elution of reference compounds was detected by ultraviolet absorbance at 210 nm.
Calculation of k′: Sodium nitrate was injected onto the column and the elution time was measured in order to determine the time for the void volume, t0, to pass through the column. Each reference compound was then injected onto the column and retention time, tR was recorded by detecting elution by measuring UV absorbance at 210 nm. The capacity factor, k′, was calculated by determining the adjusted retention time and dividing by the time for void volume elution, according to the formula k′=(tR−t0)/t0.
Each reference compound was tested three times and an average retention time was used.

[2] = system: Caco-2 cells; details: cited from earlier work
[3] = Caco-2 cell permeability assay (published Pm values); format: in vitro ADME; details: human
Procedure: Drug permeability assays using Caco-2 cells are currently widely used. Caco-2 cells are human colon adenocarcinoma cells that differentiate in culture to resemble intestinal epithelial cells.
The inventors used 21 reference compounds having a single positive charge at the pH at which the chromatography was performed, each having a published known permeability value, Pm, as determined by a Caco-2 cell assay by the various methods set out in references 1-7, below. The conditions used to determine the Caco-2 Pm values were generally similar in the cited references, although certain conditions varied between assays. Generally, the assays were performed at pH 7.4, with the exception of procaine and sumatriptan, for which the pH was 5.5 and 6.5, respectively. Therefore, for the experiments set out below, the pH of the mobile phase was 7.4 for all compounds except procaine (pH 5.5) and sumatriptan (6.5).

[4] = mobile phase 85% 0.05 M ammonium phosphate pH 7.4 / 15% acetonitrile
[5] = mobile phase buffer pH 7.4 / 15% acetonitrile
[6] = Caco 2 donor pH 7.4, log of Pm in 10^−6 cm/s, read-out: Pm (converted)
[7] = mobile phase buffer pH 5.5 / 15% acetonitrile
[8] = mobile phase buffer pH 6.5 / 15% acetonitrile

C=CCc1ccccc1OCC(O)CNC(C)C (stereo not shown) [Alprenolol]
k′IAM (capacity factor) [1, 4]: 19.190
logk′IAM [1, 5]: 1.283
Pm ([2]; Caco 2 donor pH 7.4): 25.3 10^−6 cm/s
Pm of Caco-2 Assay ([2]; published Caco-2 assay, pH 7.4): 25.3 +/− 10^−6 cm/s
Papp [3, 6]: 25.3 ×10⁻⁶ cm/s

Clc1cccc(Cl)c1N=C1NCCN1 [Clonidine]
k′IAM (capacity factor) [1, 4]: 3.841
logk′IAM [1, 5]: 0.584
Pm ([2]; Caco 2 donor pH 7.4): 21.8 10^−6 cm/s
Pm of Caco-2 Assay ([2]; published Caco-2 assay, pH 7.4): 21.8 +/− 10^−6 cm/s
Papp ([3]; Caco-2, pH 7.4): 21.8 ×10⁻⁶ cm/s

COc1ccc([C@@H]2Sc3ccccc3N(CCN(C)C)C(=O)[C@@H]2OC(C)=O)cc1 [Diltiazem]
k′IAM (capacity factor) [1, 4]: 24.145
logk′IAM [1, 5]: 1.383

CN(C)CCCN1c2ccccc2CCc2ccccc21 [Imipramine]
k′IAM (capacity factor) [1, 4]: 91.053
logk′IAM [1, 5]: 1.959

CC(CCc1ccccc1)NCC(O)c1ccc(O)c(C(N)=O)c1 (stereo not shown) [Labetalol]
k′IAM (capacity factor) [1, 4]: 12.940
logk′IAM [1, 5]: 1.112

COCCc1ccc(OCC(O)CNC(C)C)cc1 (stereo not shown) [Metoprolol]
k′IAM (capacity factor) [1, 4]: 3.600
logk′IAM [1, 5]: 0.556
Pm ([2]; Caco 2 donor pH 7.4): 23.7 10^−6 cm/s
Pm of Caco-2 Assay ([2]; published Caco-2 assay, pH 7.4): 23.7 +/− 10^−6 cm/s
Papp ([3]; Caco-2, pH 7.4): 23.7 ×10⁻⁶ cm/s

CC(C)(C)NCC(O)COc1cccc2c1CC(O)C(O)C2 (stereo not shown) [Nadolol]
k′IAM (capacity factor) [1, 4]: 1.717
logk′IAM [1, 5]: 0.235
Pm ([2]; Caco 2 donor pH 7.4): 3.88 10^−6 cm/s
Pm of Caco-2 Assay ([2]; published Caco-2 assay, pH 7.4): 3.88 +/− 10^−6 cm/s
Papp [3, 6]: 3.88 ×10⁻⁶ cm/s

CC(C)NCC(O)COc1cccc2[nH]ccc12 (stereo not shown) [Pindolol]
k′IAM (capacity factor) [1, 4]: 4.712
logk′IAM [1, 5]: 0.673
Pm ([2]; Caco 2 donor pH 7.4): 16.7 10^−6 cm/s
Pm of Caco-2 Assay ([2]; published Caco-2 assay, pH 7.4): 16.7 +/− 10^−6 cm/s
Papp ([3]; Caco-2, pH 7.4): 16.7 ×10⁻⁶ cm/s

CCN(CC)CCOC(=O)c1ccc(N)cc1 [Procaine]
logk′IAM [1, 7]: −0.368
k′IAM (capacity factor) [1, 7]: 0.428
Pm ([2]; Caco 2 donor pH 5.5): 1.94 10^−6 cm/s
Pm of Caco-2 Assay ([2]; published Caco-2 assay, pH 5.5): 1.94 +/− 10^−6 cm/s
Papp ([3]; Caco 2 donor pH 5.5, log of Pm in 10^−6 cm/s, read-out: Pm (converted)): 1.94 ×10⁻⁶ cm/s

CC(C)NCC(O)COc1cccc2ccccc12 (stereo not shown) [Propranolol]
k′IAM (capacity factor) [1, 4]: 31.148
logk′IAM [1, 5]: 1.493
Pm ([2]; Caco 2 donor pH 7.4): 32.5 10^−6 cm/s
Pm of Caco-2 Assay ([2]; Caco-2, pH 7.4): 1.94 +/− 10^−6 cm/s
Papp ([3]; Caco-2, pH 7.4): 32.5 ×10⁻⁶ cm/s

CN/C(=C\[N+](=O)[O-])NCCSCc1ccc(CN(C)C)o1 [Ranitidine]
k′IAM (capacity factor) [1, 4]: 1.232
logk′IAM [1, 5]: 0.091
Pm ([2]; Caco 2 donor pH 7.4): 0.49 10^−6 cm/s
Pm of Caco-2 Assay ([2]; published Caco-2 assay, pH 7.4): 0.49 +/− 10^−6 cm/s
Papp [3, 6]: 0.49 ×10⁻⁶ cm/s

CCN1CCCC1CNC(=O)c1cc(S(N)(=O)=O)ccc1OC (stereo not shown) [Sulpiride]
k′IAM (capacity factor) [1, 4]: 1.804
logk′IAM [1, 5]: 0.256

CNS(=O)(=O)Cc1ccc2[nH]cc(CCN(C)C)c2c1 [Sumatriptan]
logk′IAM [1, 8]: −0.077
k′IAM (capacity factor) [1, 8]: 0.837
Pm ([2]; Caco 2 donor pH 6.5): 3 10^−6 cm/s
Pm of Caco-2 Assay ([2]; published Caco-2 assay, pH 6.5): 3 10^−6 cm/s
Papp ([3]; Caco 2 donor pH 6.5, log of Pm in 10^−6 cm/s, read-out: Pm (converted)): 3 ×10⁻⁶ cm/s

CC(C)(C)NCC(O)c1cc(O)cc(O)c1 (stereo not shown) [Terbutaline]
k′IAM (capacity factor) [1, 4]: 1.276
logk′IAM [1, 5]: 0.106
Pm ([2]; Caco 2 donor pH 7.4): 1.4 10^−6 cm/s
Pm of Caco-2 Assay ([2]; published Caco-2 assay, pH 7.4): 1.4 +/− 10^−6 cm/s
Papp [3, 6]: 1.4 ×10⁻⁶ cm/s
